Measurements as given in ChEMBL document CHEMBL1141736, “DNA polymerase and topoisomerase II inhibitors from Psoralea corylifolia” (J Nat Prod, 1998).
pIC50: −log10 of the molar value. The source made the active and inactive calls. The calls are words filed in the database; no cut-off is given here.

Assays:
Type in all cases: cell-based
CV-1 [1] = test: Inhibition of replicative DNA polymerase gamma in SV40 virus infected african green monkey CV1 cells; details: Chlorocebus aethiops
CV-1 [2] = test: Inhibition of replicative DNA polymerase epsilon in SV40 virus infected african green monkey CV1 cells; details: Chlorocebus aethiops
CV-1 [3] = test: Inhibition of replicative DNA polymerase […] in SV40 virus infected african green monkey CV1 cells; details: Chlorocebus aethiops
[4] = molecular target: DNA topoisomerase 2-alpha (Homo sapiens, UniProt P11388); test: Inhibition of DNA topoisomerase 2 in human HeLa cells by kinetoplast DNA decantation assay
Sequence of DNA topoisomerase 2-alpha (P11388 whole entry): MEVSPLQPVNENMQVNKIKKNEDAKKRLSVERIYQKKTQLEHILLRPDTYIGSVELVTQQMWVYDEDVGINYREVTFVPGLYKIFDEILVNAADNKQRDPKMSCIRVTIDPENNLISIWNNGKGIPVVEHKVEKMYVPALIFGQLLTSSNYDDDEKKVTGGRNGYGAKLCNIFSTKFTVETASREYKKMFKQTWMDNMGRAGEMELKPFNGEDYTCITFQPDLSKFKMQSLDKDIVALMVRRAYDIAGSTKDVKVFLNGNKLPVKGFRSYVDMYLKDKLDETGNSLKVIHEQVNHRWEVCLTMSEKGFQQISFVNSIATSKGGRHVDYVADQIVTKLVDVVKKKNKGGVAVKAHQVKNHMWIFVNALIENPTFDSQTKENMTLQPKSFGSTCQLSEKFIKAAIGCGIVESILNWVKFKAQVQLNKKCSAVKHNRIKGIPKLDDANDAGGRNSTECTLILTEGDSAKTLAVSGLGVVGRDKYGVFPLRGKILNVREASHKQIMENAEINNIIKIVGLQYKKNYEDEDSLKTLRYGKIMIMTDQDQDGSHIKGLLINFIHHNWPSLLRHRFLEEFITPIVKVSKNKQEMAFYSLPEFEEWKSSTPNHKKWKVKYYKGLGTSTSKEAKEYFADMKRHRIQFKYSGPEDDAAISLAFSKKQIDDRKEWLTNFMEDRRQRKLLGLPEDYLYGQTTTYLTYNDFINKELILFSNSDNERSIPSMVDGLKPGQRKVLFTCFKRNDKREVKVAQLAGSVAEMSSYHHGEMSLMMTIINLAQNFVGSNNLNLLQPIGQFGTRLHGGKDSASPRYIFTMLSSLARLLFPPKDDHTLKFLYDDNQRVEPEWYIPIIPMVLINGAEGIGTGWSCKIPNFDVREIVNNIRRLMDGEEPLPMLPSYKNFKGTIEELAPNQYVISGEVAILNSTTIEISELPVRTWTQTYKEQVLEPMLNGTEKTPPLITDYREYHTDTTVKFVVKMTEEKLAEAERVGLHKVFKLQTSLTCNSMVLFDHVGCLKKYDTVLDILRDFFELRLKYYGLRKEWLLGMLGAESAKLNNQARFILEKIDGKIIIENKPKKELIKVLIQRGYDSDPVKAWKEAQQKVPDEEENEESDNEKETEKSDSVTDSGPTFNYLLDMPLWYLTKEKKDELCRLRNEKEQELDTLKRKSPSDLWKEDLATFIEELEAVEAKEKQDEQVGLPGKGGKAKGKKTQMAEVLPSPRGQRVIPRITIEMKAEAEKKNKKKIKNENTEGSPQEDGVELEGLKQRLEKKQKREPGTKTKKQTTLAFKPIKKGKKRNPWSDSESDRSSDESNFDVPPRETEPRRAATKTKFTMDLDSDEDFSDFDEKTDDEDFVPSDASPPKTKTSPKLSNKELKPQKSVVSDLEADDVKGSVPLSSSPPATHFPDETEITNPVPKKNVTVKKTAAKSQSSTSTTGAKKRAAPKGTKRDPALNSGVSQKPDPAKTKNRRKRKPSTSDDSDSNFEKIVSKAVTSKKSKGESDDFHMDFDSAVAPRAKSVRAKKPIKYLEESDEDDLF

Structure (SMILES): C=C[C@@](C)(/C=C/c1ccc(O)cc1)CCC=C(C)C
- Activity (CV-1 [1]): inactive
- Activity (CV-1 [2]): Active
- Activity (CV-1 [3]): inactive

Structure (SMILES): O=c1ccc2cc3ccoc3cc2o1
- Activity [4]: inactive

Structure (SMILES): O=c1ccc2c(ccc3ccoc32)o1 [BAKUCHICIN]
- pIC50 [4]: 3.39

Structure (SMILES): CC(C)=CCc1cc(-c2coc3cc(O)ccc3c2=O)ccc1O
- Activity [4]: inactive
